Where two headings read alike, the source gives them in different places.

Type in all cases: in vivo
Assay [1] deals with MC38 tumor cells. The settings on record: dosing schedule not given, anti-PD-1 combination study. Here is the method: For all xenograft studies, nine-week old female C57BL/6 mice (C57BL/6NCrl) were implanted with MC38 tumor cells and treatment was initiated when mean tumor volume was approximately 100 mm^3. Compound I was administered in combination with oxaliplatin and […] according to the Induction and Maintenance (IM) dosing schedule, which is shown in FIG. 3.
Briefly, Compound I (100 mg/kg) and oxaliplatin (10 mg/kg) were administered intraperitoneally (IP) once weekly for three doses and mouse […] (5 mg/kg, IP) was given twice weekly starting on Day 1 and continuing through the end of study.
(§1) Single, two, and three drug combinations were tested and Compound I was administered 30 minutes prior to chemotherapy treatment. Complete response (CR) and partial response (PR) were calculated using standard Charles River Laboratories (CRL; RTP, NC) criteria. Body weight (BW) and health were monitored, and tumor volume was measured twice weekly. The individual tumor volume endpoint was 1000 mm^3 or Day 100, whichever came first.

In assay [2] the test system is MC38 tumor cells. The settings on record: dosing schedule not given, anti-PD-L1 combination study. Here is the method: Anti-tumor activity of Compound I in combination with PD-L1 (clone 10F.9G2) and oxaliplatin was evaluated in the MC38 syngeneic murine colon carcinoma model. For all xenograft studies, nine-week old female C57BL/6 mice (C57BL/6NCrl) were implanted with MC38 tumor cells and treatment was initiated when mean tumor volume was approximately 100 mm^3.
(§2) Briefly, Compound I (100 mg/kg) and oxaliplatin (10 mg/kg) were administered intraperitoneally (IP) once weekly for three doses and the checkpoint inhibitor administration was varied as depending on the dosing schedule. In the Induction (I) dosing schedule, mouse anti-PD-L1 (100 μg/animal, IP) was given twice weekly for two weeks starting on Day 1 and ending on Day 15. In the Maintenance (M) dosing schedule, mouse anti-PD-L1 (100 μg/animal, IP) was given twice weekly starting on Day 15 and continuing through the end of study. In the Induction+Maintenance (IM) dosing schedule, mouse anti-PD-L1 (100 μg/animal, IP) was given twice weekly starting on Day 1 and continuing through the end of study.
as §1, with “first. The arms of the study included the following: • 1) vehicle • 2) Compound I+anti-PD-L1 (clone 10F.9G2), IM dosing schedule • 3) Compound I+Oxaliplatin+anti-PD-L1 (clone 10F.9G2), IM dosing schedule • 4) Oxaliplatin+anti-mouse PD-L1 (clone 10F.9G2), M dosing schedule • 5) Compound I+oxaliplatin+anti-mouse PD-L1 (clone 10F.9G2), M dosing schedule • 6) oxaliplatin+anti-mouse PD-L1 (clone 10F.9G2), I dosing schedule • 7) Compound I+oxaliplatin+anti-mouse PD-L1 (clone 10F.9G2), I dosing schedule” for “first.”

Assay [3] concerns MC38 tumor cells. The settings on record: interim data, dosing schedule not given. The procedure: Anti-tumor activity of Compound I in combination with mouse anti-PD-L1 (clone 10F.9G2), and 5-flurouracil (5-FU) was evaluated in the MC38 syngeneic murine colon carcinoma model. For all xenograft studies, nine-week old female C57BL/6 mice (C57BL/6NCrl) were implanted with MC38 tumor cells and treatment was initiated when mean tumor volume was approximately 100 mm^3.
as §2, with “5-FU (75” for “oxaliplatin (10”, “doses. […]” for “doses and the checkpoint inhibitor administration was varied as depending on the dosing schedule.”
Single, two, and three drug combinations were tested and Compound I was administered minutes prior to chemotherapy treatment. Complete response (CR) and partial response (PR) were calculated using standard Charles River Laboratories (CRL; RTP, NC) criteria. Body weight (BW) and health were monitored, and tumor volume was measured twice weekly. The individual tumor volume endpoint was 1000 mm^3 or Day 100, whichever came first. The arms of the study included the following: • 1) vehicle • 2) 5-FU+anti-PD-L1 (clone 10F.9G2), IM dosing schedule • 3) Compound I+5-FU+anti-PD-L1 (clone 10F.9G2), IM dosing schedule • 4) 5-FU+anti-mouse PD-L1 (clone 10F.9G2), M dosing schedule • 5) Compound I+5-FU+anti-mouse PD-L1 (clone 10F.9G2), M dosing schedule • 6) 5-FU+anti-mouse PD-L1 (clone 10F.9G2), I dosing schedule • 7) Compound I+5-FU+anti-mouse PD-L1 (clone 10F.9G2), I dosing schedule

As for `O=C1[O][Pt]2([NH][C@@H]3CCCC[C@H]3[NH]2)[O]C1=O` [Oxaliplatin, oxaliplatin, reference compound], in assay [1], the “Complete Response %” value was found to be 10%, the “Objective Response Rate %” value came out at 10%, the “Overall Survival (OS)” value was determined as 31 and the “Partial Response %” value worked out at 0%. Also, in assay [2], the “Complete Response %” value came to 22%, the “Objective Response Rate %” value is 22%, the “Overall Survival (OS)” value was 36 and the “Partial Response %” value is listed as 0%.

In the case of `O=c1[nH]cc(F)c(=O)[nH]1` [Compound 5-FU, 5-Fluorouracil], in assay [3] (Day 29), the “Overall Survival @ D29%” value was 30%. Also, in assay [3] (MC38), the “Complete Response %” value was found to be 0%, the “Objective Response Rate %” value was determined as 0% and the “Partial Response %” value turned out to be 0%. Moreover, the “Progressive Disease %” value in assay [3] (percent of tumors that have doubled in size by Day 29) is reported as 100%.

The values above are taken from US12527798B2, “Preservation of immune response during chemotherapy regimens” (Pharmacosmos Holding A/S, priority 2016, dated 2026).
